Reference: patent US20180055032A1, “ODORS FOR PSYLLID TRAPPING, REPELLING AND CONTROL” (The Regents of the University of California, priority 2011, published 2018)

Assays:
[1] = tested on: neuron 7B (rhinarial plate on flagellomere 7); type: cell-based, Diaphorina citri; conditions: Table 1; odor diluted to 1%, 50 μL in cartridge
[2] = tested on: neuron 6C (rhinarial plate on flagellomere 6); assay: single-sensillum electrophysiology, odor response of neuron 6C; type: cell-based, Diaphorina citri; conditions: Table 1; odor diluted to 1%, 50 μL in cartridge
[3] = tested on: neuron 4B (rhinarial plate on flagellomere 4); type: cell-based, Diaphorina citri; conditions: Table 1; odor diluted to 1%, 50 μL in cartridge
[4] = tested on: neuron 7A (rhinarial plate on flagellomere 7); assay: single-sensillum electrophysiology, odor response of neuron 7A; type: cell-based, Diaphorina citri; conditions: Table 1; odor diluted to 1%, 50 μL in cartridge; further: key: 0, no response; +, >50 spikes/second; ++, >100 spikes/second; +++, >150 spikes/second
[5] = tested on: neuron 2A (rhinarial plate on flagellomere 2); assay: single-sensillum electrophysiology, odor response of neuron 2A; type: cell-based, Diaphorina citri; conditions: Table 1; odor diluted to 1%, 50 μL in cartridge; further: key: 0, no response; +, >50 spikes/second; ++, >100 spikes/second; +++, >150 spikes/second
ACP = conditions: cited from earlier work
[6] = tested on: neuron 6A (rhinarial plate on flagellomere 6); assay: single-sensillum electrophysiology, odor response of neuron 6A; type: cell-based, Diaphorina citri; conditions: Table 1; odor diluted to 1%, 50 μL in cartridge
[7] = tested on: neuron 7C (rhinarial plate on flagellomere 7); assay: single-sensillum electrophysiology, odor response of neuron 7C; type: cell-based, Diaphorina citri; conditions: Table 1; odor diluted to 1%, 50 μL in cartridge
[8] = tested on: neuron 4A (rhinarial plate on flagellomere 4); assay: single-sensillum electrophysiology, odor response of neuron 4A; type: cell-based, Diaphorina citri; conditions: Table 1; odor diluted to 1%, 50 μL in cartridge
[9] = tested on: neuron 2B (rhinarial plate on flagellomere 2); assay: single-sensillum electrophysiology, odor response of neuron 2B; type: cell-based, Diaphorina citri; conditions: Table 1; odor diluted to 1%, 50 μL in cartridge
[10] = tested on: neuron 2C (rhinarial plate on flagellomere 2); assay: single-sensillum electrophysiology, odor response of neuron 2C; type: cell-based, Diaphorina citri; conditions: Table 1; odor diluted to 1%, 50 μL in cartridge
[11] = tested on: neuron 6B (rhinarial plate on flagellomere 6); assay: single-sensillum electrophysiology, odor response of neuron 6B; type: cell-based, Diaphorina citri; conditions: Table 1; odor diluted to 1%, 50 μL in cartridge
[12] = tested on: neuron 4C (rhinarial plate on flagellomere 4); assay: single-sensillum electrophysiology, odor response of neuron 4C; type: cell-based, Diaphorina citri; conditions: Table 1; odor diluted to 1%, 50 μL in cartridge

| Structure (SMILES) | odor response (frequency of action potentials during stimulus minus baseline), 7B [1] | odor response (frequency of action potentials during stimulus minus baseline), 6C [2] | odor response (frequency of action potentials during stimulus minus baseline), 4B [3] | odor response (frequency of action potentials during stimulus minus baseline), 7A [4] | odor response (frequency of action potentials during stimulus minus baseline), 2A [5] | ACP behavior in lab behavior assays (ACP; at lower concentration) | ACP behavior in laboratory behavioral assays (ACP; high amounts, as released by citrus plants under physical stress) | odor response (frequency of action potentials during stimulus minus baseline), 6A [6] | odor response (frequency of action potentials during stimulus minus baseline), 7C [7] | odor response (frequency of action potentials during stimulus minus baseline), 4A [8] | odor response (frequency of action potentials during stimulus minus baseline), 2B [9] | odor response (frequency of action potentials during stimulus minus baseline), 2C [10] | odor response (frequency of action potentials during stimulus minus baseline), 6B [11] | odor response (frequency of action potentials during stimulus minus baseline), 4C [12] |
| --- | --- | --- | --- | --- | --- | --- | --- | --- | --- | --- | --- | --- | --- | --- |
| COC(=O)c1ccccc1O [methyl salicylate] | + (+, >50 spikes/second) | 0 | + (+, >50 spikes/second) | 0 | 0 | attracted | repellency | 0 | 0 | 0 | 0 | 0 | + (+, >50 spikes/second) | 0 |
| C=CCSSCC=C [allyl disulfide] | 0 | 0 | ++ (++, >100 spikes/second) | 0 | 0 | – | – | 0 | 0 | 0 | 0 | 0 | + (+, >50 spikes/second) | 0 |
| CCC/C=C/C=O [E2-hexenal] | 0 | 0 | + (+, >50 spikes/second) | 0 | 0 | – | – | 0 | 0 | 0 | 0 | ++ (++, >100 spikes/second) | + (+, >50 spikes/second) | 0 |
| C=C(C)C1CC=C(C)CC1 (single isomer, unassigned; (+)) [(+)-limonene] | 0 | 0 | + (+, >50 spikes/second) | 0 | 0 | – | – | 0 | 0 | 0 | 0 | + (+, >50 spikes/second) | + (+, >50 spikes/second) | 0 |
| CC(=O)CCC=C(C)C [6-methyl-5-hepten-2-one] | 0 | 0 | 0 | 0 | 0 | – | – | 0 | 0 | 0 | 0 | + (+, >50 spikes/second) | 0 | 0 |
